This is an account of results in US9611263B2, “Compounds that modulate intracellular calcium” (CALCIMEDICA, INC., priority 2013, dated 2017).

One assay has as its target T1, Orai1/STIM1 (Homo sapiens, UniProt Q96D31).
T1 construct: expressed in transfected cells
In words: Fluorescence-based assay of store-operated calcium entry in Orai1/STIM1 stable cells. The format is cell-based. Particulars: HEK-293 cells stably expressing human STIM1 and Orai1; 50% inhibition of Peak-Basal fluorescence signal; read-out: Orai1/STIM1 (IC50, μmol). As for the experimental part: A. Fluorescence-Based Assay of Store-Operated Calcium Entry in Orai1/STIM1 Stable Cells.
Cells stably expressing recombinant human STIM1 and Orai1 are generated by transfecting a human Orai1 expression plasmid (pcDNA3.1-Orai1-cmyc) into HEK-293 cells stably overexpressing human STIM1 (Roos et al. 2005 JCB 169(3): 435-445). Colonies of cells stably expressing both STIM1 and Orai1 proteins are selected and then subcloned by limiting dilution. Cells were cultured at 37° C./6% CO2 in complete medium with 10% FBS and appropriate selection markers.
The day prior to performing the assay Orai1/STIM1 stable cells are plated in 50 μL of complete medium at 90-95% confluence in a 384 well plate. Cells are grown at 37° C./6% CO2 overnight. On the day of the assay, 1.5 μM fluo-4-AM (Invitrogen) in complete medium is added to the cells, which are then incubated for 1 hour at RT. Cells are washed once in Ca^2+-free HBSS (Hank's buffered saline solution) and 35 μl of Ca^2+-free HBSS is added to each well. Test compounds are added to wells in a 10 μL Ca^2+-free HBSS solution, prepared at 4.5× the desired final concentration, and incubated for 30 minutes at RT. The initial baseline fluorescence signal is then measured with a FLIPR^384 (Molecular Devices) plate reader. Calcium entry is initiated by adding 5 μl of 10× CaCl2 (10 mM) in HBSS, and changes in cellular fluorescence are measured with the FLIPR^384 plate reader. In each well, the magnitude of the fluorescence signal as a result of calcium entry into the cell is determined by calculating the difference between the peak fluorescence signal measured after calcium addition and the initial baseline fluorescence signal (designated Peak-Basal). IC50 values are typically calculated as the concentration that inhibited 50% of the Peak-Basal signal.

The test system of another assay is RBL-2H3 cells. As to the kind of experiment: Fluorescence-based assay of store-operated calcium entry in RBL-2H3 cells. Type of assay: cell-based, rat. The following applies: Rattus norvegicus, RBL-2H3; thapsigargin; 50% inhibition of Upslope; read-out: RBL-2H3 (IC50, μmol). As for the experimental part:
B. Fluorescence-Based Assay of Store-Operated Calcium Entry in RBL-2H3 Cells.
RBL-2H3 cells are obtained from ATCC and maintained in complete medium with 10% FBS at 37° C./6% CO2.
The day prior to performing the assay, RBL-2H3 cells are plated in 50 μL of complete medium in a 384 well plate. Cells are grown at 37° C./6% CO2 overnight and grow to 50-60% confluence by the next day. On the assay day, 1.5 μM Fluo-4-AM dye (Invitrogen) in complete medium is added and incubated for 1 hour at RT. Cells are washed twice in Ca^2+-free HBSS buffer and 35 μL Ca^2+-free HBSS buffer is added to each well. 10 μL of a test compound prepared in a Ca^2+-free HBSS solution at 4.5× of the desired concentration is added to a well and incubated for 5 minutes at RT. 10 μL of thapsigargin prepared in a Ca^2+-free HBSS solution at 5.5× of the desired concentration (5.5 uM) is added to each well and incubated for an additional 25 minutes. The initial baseline fluorescence signal is measured with a FLIPR^384 (Molecular Devices) plate reader. 5 μL of 12× calcium in HBSS (12 mM) is added and changes in cellular fluorescence are measured with the FLIPR^384 plate reader. In each well, the change in the fluorescent signal as a function of time due to calcium entry into the cell is determined by calculating the difference between the fluorescent signal measured 7 seconds after calcium addition and the initial baseline fluorescence signal at time zero (t=0). This parameter is designated Upslope. The IC50 value is calculated as the concentration at which 50% of the Upslope is inhibited.

Molecules are shown by their SMILES.

T1 sequence (Q96D31 whole entry): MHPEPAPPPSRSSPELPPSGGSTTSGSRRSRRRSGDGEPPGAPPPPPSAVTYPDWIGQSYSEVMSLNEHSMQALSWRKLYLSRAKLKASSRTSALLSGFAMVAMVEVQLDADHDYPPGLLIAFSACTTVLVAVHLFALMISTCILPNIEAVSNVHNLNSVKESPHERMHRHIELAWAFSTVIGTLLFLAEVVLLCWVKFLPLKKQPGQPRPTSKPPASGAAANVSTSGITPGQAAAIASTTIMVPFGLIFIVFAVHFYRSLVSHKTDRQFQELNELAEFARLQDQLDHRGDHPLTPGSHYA

For `Cc1cccc(F)c1C(=O)Nc1cnc(-c2cn(-c3nccs3)nc2C)cn1` [Example 26, 2-fluoro-6-methyl-N-(5-(3-methyl-1-(thiazol-2-yl)-1H-pyrazol-4-yl)pyrazin-2-yl)benzamide], the IC50 on Orai1/STIM1 and in the assay on RBL-2H3 cells was under 600 nM in each case.

Turning to `Cc1nn(-c2nccs2)cc1-c1cnc(NC(=O)c2c(F)ccc(F)c2F)cn1` [Example 27, 2,3,6-trifluoro-N-(5-(3-methyl-1-(thiazol-2-yl)-1H-pyrazol-4-yl)pyrazin-2-yl)benzamide], the IC50 at Orai1/STIM1 and in the assay on RBL-2H3 cells was under 600 nM throughout.

With `Cc1nn(-c2nccs2)cc1-c1cnc(NC(=O)c2c(F)cc(F)cc2F)cn1` [Example 28, 2,4,6-trifluoro-N-(5-(3-methyl-1-(thiazol-2-yl)-1H-pyrazol-4-yl)pyrazin-2-yl)benzamide], the IC50 on Orai1/STIM1 and in the assay with RBL-2H3 cells was under 600 nM throughout.

Take `Cc1ccc(F)c(C(=O)Nc2cnc(-c3cn(-c4nccs4)nc3C)cn2)c1F` [Example 30, 2,6-difluoro-3-methyl-N-(5-(3-methyl-1-(thiazol-2-yl)-1H-pyrazol-4-yl)pyrazin-2-yl)benzamide]: the IC50 at Orai1/STIM1 was 600 to 1200 nM; with RBL-2H3 cells, under 600 nM.

On to `CCc1nn(-c2nccs2)cc1-c1ccc(NC(=O)c2c(F)cccc2F)cc1F` [Example 31, N-(4-(3-ethyl-1-(thiazol-2-yl)-1H-pyrazol-4-yl)-3-fluorophenyl)-2,6-difluorobenzamide], for which the IC50 at Orai1/STIM1 and in the assay with RBL-2H3 cells was under 600 nM in each case.

Take `CCc1nn(-c2nccs2)cc1-c1ccc(NC(=O)c2c(F)ccc(F)c2F)cc1F` [Example 32, N-(4-(3-ethyl-1-(thiazol-2-yl)-1H-pyrazol-4-yl)-3-fluorophenyl)-2,3,6-trifluorobenzamide]: the IC50 at Orai1/STIM1 is over 1200 nM; in the assay with RBL-2H3 cells, under 600 nM.

With `CCc1nn(-c2nccs2)cc1-c1ccc(NC(=O)c2c(F)cc(F)cc2F)cc1F` [Example 33, N-(4-(3-ethyl-1-(thiazol-2-yl)-1H-pyrazol-4-yl)-3-fluorophenyl)-2,4,6-trifluorobenzamide], the IC50 is over 1200 nM on Orai1/STIM1 and under 600 nM in the assay on RBL-2H3 cells.

Regarding `CCc1nn(-c2nccs2)cc1-c1ccc(NC(=O)c2cc(F)nc(F)c2)cc1F` [Example 34, N-(4-(3-ethyl-1-(thiazol-2-yl)-1H-pyrazol-4-yl)-3-fluorophenyl)-2,6-difluoroisonicotinamide], the IC50 on Orai1/STIM1 is over 1200 nM; in the assay on RBL-2H3 cells, under 600 nM.

Regarding `CCc1nn(-c2nccs2)cc1-c1ccc(NC(=O)c2c(F)cccc2F)nc1` [Example 35, N-(5-(3-ethyl-1-(thiazol-2-yl)-1H-pyrazol-4-yl)pyridin-2-yl)-2,6-difluorobenzamide], the IC50 on Orai1/STIM1 and in the assay on RBL-2H3 cells was under 600 nM each time.

Turning to `CCc1nn(-c2nccs2)cc1-c1ccc(NC(=O)c2c(F)ccc(F)c2F)nc1` [Example 36, N-(5-(3-ethyl-1-(thiazol-2-yl)-1H-pyrazol-4-yl)pyridin-2-yl)-2,3,6-trifluorobenzamide], the IC50 at Orai1/STIM1 and with RBL-2H3 cells was under 600 nM each time.

For the compound `CCc1nn(-c2nccs2)cc1-c1ccc(NC(=O)c2c(F)cc(F)cc2F)nc1` [Example 37, N-(5-(3-ethyl-1-(thiazol-2-yl)-1H-pyrazol-4-yl)pyridin-2-yl)-2,4,6-trifluorobenzamide], the IC50 on Orai1/STIM1 and with RBL-2H3 cells was under 600 nM each time.

As for `CCc1nn(-c2nccs2)cc1-c1cnc(NC(=O)c2c(F)cccc2F)cn1` [Example 38, N-(5-(3-ethyl-1-(thiazol-2-yl)-1H-pyrazol-4-yl)pyrazin-2-yl)-2,6-difluorobenzamide], the IC50 at Orai1/STIM1 and in the assay with RBL-2H3 cells was under 600 nM throughout.

Regarding `O=C(Nc1ccc(-c2cn(-c3nccs3)nc2C2CC2)c(F)c1)c1c(F)cccc1F` [Example 41, N-(4-(3-cyclopropyl-1-(thiazol-2-yl)-1H-pyrazol-4-yl)-3-fluorophenyl)-2,6-difluorobenzamide], the IC50 on Orai1/STIM1 is over 1200 nM; in the assay on RBL-2H3 cells it was under 600 nM.

On to `O=C(Nc1ccc(-c2cn(-c3nccs3)nc2C2CC2)c(F)c1)c1c(F)ccc(F)c1F` [Example 42, N-(4-(3-cyclopropyl-1-(thiazol-2-yl)-1H-pyrazol-4-yl)-3-fluorophenyl)-2,3,6-trifluorobenzamide], for which the IC50 is 600 to 1200 nM on Orai1/STIM1 and under 600 nM with RBL-2H3 cells.

On to `O=C(Nc1ccc(-c2cn(-c3nccs3)nc2C2CC2)c(F)c1)c1c(F)cc(F)cc1F` [Example 43, N-(4-(3-cyclopropyl-1-(thiazol-2-yl)-1H-pyrazol-4-yl)-3-fluorophenyl)-2,4,6-trifluorobenzamide], for which the IC50 on Orai1/STIM1 was over 1200 nM; in the assay on RBL-2H3 cells, under 600 nM.

On to `O=C(Nc1ccc(-c2cn(-c3nccs3)nc2C2CC2)cn1)c1c(F)cccc1F` [Example 44, N-(5-(3-cyclopropyl-1-(thiazol-2-yl)-1H-pyrazol-4-yl)pyridin-2-yl)-2,6-difluorobenzamide], for which the IC50 on Orai1/STIM1 and in the assay on RBL-2H3 cells was under 600 nM throughout.

On to `O=C(Nc1ccc(-c2cn(-c3nccs3)nc2C2CC2)cn1)c1c(F)ccc(F)c1F` [Example 45, N-(5-(3-cyclopropyl-1-(thiazol-2-yl)-1H-pyrazol-4-yl)pyridin-2-yl)-2,3,6-trifluorobenzamide], for which the IC50 at Orai1/STIM1 is 600 to 1200 nM; with RBL-2H3 cells, under 600 nM.

Take `O=C(Nc1ccc(-c2cn(-c3nccs3)nc2C2CC2)cn1)c1c(F)cc(F)cc1F` [Example 46, N-(5-(3-cyclopropyl-1-(thiazol-2-yl)-1H-pyrazol-4-yl)pyridin-2-yl)-2,4,6-trifluorobenzamide]: the IC50 at Orai1/STIM1 is 600 to 1200 nM; in the assay with RBL-2H3 cells, under 600 nM.

Consider `O=C(Nc1cnc(-c2cn(-c3nccs3)nc2C2CC2)cn1)c1c(F)cccc1F` [Example 47, N-(5-(3-cyclopropyl-1-(thiazol-2-yl)-1H-pyrazol-4-yl)pyrazin-2-yl)-2,6-difluorobenzamide], for which the IC50 at Orai1/STIM1 was over 1200 nM; in the assay with RBL-2H3 cells it was under 600 nM.

`O=C(Nc1cnc(-c2cn(-c3nccs3)nc2C2CC2)cn1)c1c(F)ccc(F)c1F` [Example 48, N-(5-(3-cyclopropyl-1-(thiazol-2-yl)-1H-pyrazol-4-yl)pyrazin-2-yl)-2,3,6-trifluorobenzamide]: the values for the IC50 at Orai1/STIM1 and in the assay on RBL-2H3 cells were over 1200 nM and under 600 nM, respectively.

Regarding `O=C(Nc1cnc(-c2cn(-c3nccs3)nc2C2CC2)cn1)c1c(F)cc(F)cc1F` [Example 49, N-(5-(3-cyclopropyl-1-(thiazol-2-yl)-1H-pyrazol-4-yl)pyrazin-2-yl)-2,4,6-trifluorobenzamide], the IC50 at Orai1/STIM1 is 600 to 1200 nM; in the assay with RBL-2H3 cells, under 600 nM.

For the compound `O=C(Nc1cnc(-c2cn(-c3nccs3)nc2C2CC2)cn1)c1ccccc1F` [Example 50, N-(5-(3-cyclopropyl-1-(thiazol-2-yl)-1H-pyrazol-4-yl)pyrazin-2-yl)-2-fluorobenzamide], the IC50 at Orai1/STIM1 and in the assay with RBL-2H3 cells was under 600 nM in each case.

In the case of `O=C(Nc1ccc(-c2cn(-c3nccs3)nc2C(F)(F)F)c(F)c1)c1c(F)cccc1F` [Example 51, 2,6-difluoro-N-(3-fluoro-4-(1-(thiazol-2-yl)-3-(trifluoromethyl)-1H-pyrazol-4-yl)phenyl)benzamide], the IC50 at Orai1/STIM1 is over 1200 nM; in the assay on RBL-2H3 cells, under 600 nM.

`O=C(Nc1ccc(-c2cn(-c3nccs3)nc2C(F)(F)F)cn1)c1c(F)cccc1F` [Example 52, 2,6-difluoro-N-(5-(1-(thiazol-2-yl)-3-(trifluoromethyl)-1H-pyrazol-4-yl)pyridin-2-yl)benzamide]: the IC50 on Orai1/STIM1 and in the assay on RBL-2H3 cells was under 600 nM in each case.
